Test results: ChEMBL document CHEMBL4715817, “Python Cathelicidin CATHPb1 Protects against Multidrug-Resistant Staphylococcal Infections by Antimicrobial-Immunomodulatory Duality” (J Med Chem, 2018)
≈ marks a conversion by molar mass, not a printed value. Calls of active or inactive are those of the source. The rule behind the calls is not given here. Peptide text beside a SMILES is read from it.

Columns and labels:
LAD2 = assay: Cytotoxicity against human LAD2 cells assessed as mast cell degranulation at 100 ug/ml relative to control; format: cell-based; details: at 100 µg/mL
Staphylococcus aureus [1] = assay: Antibacterial activity against vancomycin-resistant Staphylococcus aureus assessed as neutrophil-induced bacterial cell killing neutrophils pretreated with compound measured after 15 to 60 mins; format: functional, organism-based; details: dose 10-40 µg/ml, time 15-60 min
[2] = tested on: Stenotrophomonas maltophilia; assay: Antimicrobial activity against Stenotrophomonas maltophilia IS 090223 incubated for 16 to 18 hrs by fluorescence microplate reader analysis; format: functional; details: time 16-18 hrs
Staphylococcus aureus [3] = assay: In vivo antibacterial activity against vancomycin resistant Staphylococcus aureus infected in kunming mouse assessed as reduction in bacterial load in peritoneum at 10 mg/kg, iv measured 18 hrs after infection; format: functional, organism-based
L02 = assay: Cytotoxicity against human HL7702 cells assessed as cell death at 100 ug/ml by MTT assay; format: cell-based
Mus musculus [4] = assay: Immunomodulatory activity in Kunming mouse infected with vancomycin-resistant Staphylococcus aureus assessed as effect number of neutrophil in peritoneal cavity at 10 mg/kg, ip measured upto 24 hrs by flow cytometry; format: functional, organism-based; details: time hrs <=24
Staphylococcus aureus [5] = assay: In vivo antibacterial activity against vancomycin resistant Staphylococcus aureus infected in kunming mouse assessed as reduction in bacterial load in spleen at 10 mg/kg, ip administered 4 hrs after infection; format: functional, organism-based
RAW264.7 = assay: Induction of ROS production in mouse RAW 264.7 cells by fluorescence assay; format: functional, cell-based; details: dose 10-40 µg/ml
Candida albicans [6] = assay: Antimicrobial activity against Candida albicans IS 08030809 incubated for 16 to 18 hrs by fluorescence microplate reader analysis; format: functional; details: time 16-18 hrs
Klebsiella oxytoca = assay: Antimicrobial activity against Klebsiella oxytoca incubated for 16 to 18 hrs by fluorescence microplate reader analysis; format: functional; details: time 16-18 hrs
[7] = Induction of neutrophil extracellular trap formation in neutrophil (unknown origin) at 10 ug/ml measured after 3 hrs by fluorescence analysis; format: functional; details: dose 10 µg/ml
[8] = molecular target: Mitogen-activated protein kinase 1 and 3 (ERK2 and ERK1) (Mus musculus) (UniProt P63085+Q63844); assay: Inhibition of LPS-induced phosphorylation of Erk1/2 in mouse peritoneal macrophage at 20 ug/ml pretreated for 1 hr followed by LPS stimulation measured after 30 mins by Western blot analysis relative to control; format: tissue-based; details: dose 20.0 µg/ml, time 1.5 hrs
Sequence of Mitogen-activated protein kinase 1 and 3 (ERK2 and ERK1) (Mus musculus) (P63085 whole entry, looked up): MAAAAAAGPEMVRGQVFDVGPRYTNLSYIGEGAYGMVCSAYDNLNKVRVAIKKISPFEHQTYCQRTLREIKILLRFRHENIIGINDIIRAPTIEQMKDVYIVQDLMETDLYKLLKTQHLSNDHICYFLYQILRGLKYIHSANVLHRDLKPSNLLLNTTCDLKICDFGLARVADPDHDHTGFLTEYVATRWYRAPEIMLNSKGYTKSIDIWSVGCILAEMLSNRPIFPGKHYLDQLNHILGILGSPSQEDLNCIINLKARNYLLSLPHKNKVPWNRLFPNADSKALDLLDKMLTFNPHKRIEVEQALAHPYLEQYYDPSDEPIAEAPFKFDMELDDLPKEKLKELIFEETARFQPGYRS
Sequence of Mitogen-activated protein kinase 1 and 3 (ERK2 and ERK1) (Mus musculus) (Q63844 whole entry, looked up): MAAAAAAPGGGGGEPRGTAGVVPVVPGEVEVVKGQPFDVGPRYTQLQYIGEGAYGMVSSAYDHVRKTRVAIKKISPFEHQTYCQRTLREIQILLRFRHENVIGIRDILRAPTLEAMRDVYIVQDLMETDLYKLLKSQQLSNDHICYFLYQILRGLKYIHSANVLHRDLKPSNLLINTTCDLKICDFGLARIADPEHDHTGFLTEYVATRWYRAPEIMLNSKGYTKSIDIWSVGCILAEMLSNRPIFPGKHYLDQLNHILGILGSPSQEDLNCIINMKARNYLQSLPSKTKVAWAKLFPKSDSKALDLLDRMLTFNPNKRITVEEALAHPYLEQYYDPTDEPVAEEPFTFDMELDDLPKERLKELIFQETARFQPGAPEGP

Mus musculus [9] = assay: Immunomodulatory activity in mouse assessed as increase number of inflammatory monocytes in peritoneal cavity at 10 mg/kg, ip measured after 5 to 24 hrs by flow cytometry; format: functional, organism-based; details: time 5-24 hrs
[10] = Hemolytic activity in human erythrocytes measured at 100 ug/ml; format: ADME, cell-based, Erythrocyte; details: at 100 µg/mL, read-out: Activity
Staphylococcus aureus [11] = assay: Antibacterial activity against vancomycin-resistant Staphylococcus aureus assessed as bacterial growth inhibition in aqueous solution incubated upto 96 hrs; format: functional; details: time hrs <=96
Macrophage [12] = assay: Immunomodulatory activity in mouse peritoneal macrophage assessed as increase in MCP-1 level at 20 microg/ml measured after 24 hrs by ELISA; format: functional, tissue-based; details: dose 20.0 µg/ml
Macrophage [13] = assay: Immunomodulatory activity in mouse peritoneal macrophage assessed as inhibition of LPS-induced MCP-1 level measured after 6 hrs by qRT-PCR analysis; format: functional, tissue-based; details: dose 5-20 µg/ml
[14] = Toxicity in Kunming mouse assessed as effect on MIP-2 levels at 10 mg/kg, ip measured after 5 hrs by ELISA; format: organism-based; details: in vivo
Mus musculus [15] = assay: Immunomodulatory activity in Kunming mouse infected with vancomycin-resistant Staphylococcus aureus assessed as increased in IL-10 level in peritoneal lavage at 10 mg/kg, ip administered 4 hrs after infection by ELISA; format: functional, organism-based
[16] = Toxicity in Kunming mouse assessed as effect on TNF-alpha levels at 10 mg/kg, ip measured after 5 hrs by ELISA; format: organism-based; details: in vivo
Staphylococcus aureus [17] = assay: In vivo antibacterial activity against vancomycin resistant Staphylococcus aureus infected in kunming mouse assessed as reduction in bacterial load in peritoneum at 10 mg/kg, im measured 18 hrs after infection; format: functional, organism-based
Neutrophil [18] = assay: Immunomodulatory activity in neutrophils (unknown origin) assessed as inhibition of LPS-induced IL-6 level at 5 to 20 ug/ml by ELISA; format: functional, cell-based; details: dose 5-20 µg/ml
Macrophage [19] = assay: Induction of ROS production in mouse peritoneal macrophage by fluorescence assay; format: functional, tissue-based; details: dose 10-40 µg/ml
Neutrophil [20] = assay: Immunomodulatory activity in neutrophils (unknown origin) assessed as inhibition of LPS-induced CXCL1/KC level at 5 to 20 ug/ml by ELISA; format: functional, cell-based; details: dose 5-20 µg/ml
Staphylococcus aureus [21] = assay: In vivo antibacterial activity against vancomycin resistant Staphylococcus aureus infected in neutropenic kunming mouse model assessed as bacterial load in peritoneal lavage at 10 mg/kg, ip administered 24 hrs before infection; format: functional, organism-based
Staphylococcus aureus [22] = assay: In vivo antibacterial activity against vancomycin resistant Staphylococcus aureus infected in kunming mouse assessed as reduction in bacterial load in peritoneum at 10 mg/kg, sc measured 18 hrs after infection; format: functional, organism-based
Mus musculus [23] = assay: Immunomodulatory activity in Kunming mouse infected with vancomycin-resistant Staphylococcus aureus assessed as increased in CXCL1/KC level in peritoneal lavage at 10 mg/kg, ip administered 4 hrs after infection by ELISA; format: functional, organism-based
[24] = molecular target: T1, Mitogen-activated protein kinase 8/9 (Homo sapiens) (UniProt P45983+P45984); assay: Inhibition of LPS-induced phosphorylation of Jnk1/2 in mouse peritoneal macrophage at 20 ug/ml pretreated for 1 hr followed by LPS stimulation measured after 30 mins by Western blot analysis relative to control; format: tissue-based; details: dose 20.0 µg/ml, time 1.5 hrs
T1 sequence (P45983 whole entry, looked up): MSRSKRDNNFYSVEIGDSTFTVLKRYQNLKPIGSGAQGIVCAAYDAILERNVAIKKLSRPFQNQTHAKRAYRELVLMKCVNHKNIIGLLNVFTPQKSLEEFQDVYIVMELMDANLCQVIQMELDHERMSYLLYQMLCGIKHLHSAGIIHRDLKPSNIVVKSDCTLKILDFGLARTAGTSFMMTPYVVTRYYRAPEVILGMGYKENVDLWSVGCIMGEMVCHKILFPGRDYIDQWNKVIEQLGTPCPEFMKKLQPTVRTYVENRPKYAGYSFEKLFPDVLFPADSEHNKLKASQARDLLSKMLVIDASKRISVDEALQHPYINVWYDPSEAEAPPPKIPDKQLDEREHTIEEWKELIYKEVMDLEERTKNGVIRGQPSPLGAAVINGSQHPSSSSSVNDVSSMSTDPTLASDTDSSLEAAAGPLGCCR
T1 sequence (P45984 whole entry, looked up): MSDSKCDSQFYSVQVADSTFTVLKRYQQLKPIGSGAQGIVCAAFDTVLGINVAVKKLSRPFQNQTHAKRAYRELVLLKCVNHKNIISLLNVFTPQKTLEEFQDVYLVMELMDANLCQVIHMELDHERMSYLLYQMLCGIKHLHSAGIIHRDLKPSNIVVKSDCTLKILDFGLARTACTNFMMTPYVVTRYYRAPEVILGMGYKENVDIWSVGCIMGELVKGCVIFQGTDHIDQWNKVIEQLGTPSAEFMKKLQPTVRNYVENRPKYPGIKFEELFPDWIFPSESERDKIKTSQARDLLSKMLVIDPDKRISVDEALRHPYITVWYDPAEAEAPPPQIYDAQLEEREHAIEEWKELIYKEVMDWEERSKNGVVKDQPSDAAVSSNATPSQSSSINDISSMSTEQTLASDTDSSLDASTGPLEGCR

Nakaseomyces glabratus = assay: Antibiofilm activity against Candida glabrata assessed as biofilm eradication at BIC-5 by XTT and crystal violet staining assay relative to control; format: functional
Escherichia coli [25] = assay: Antimicrobial activity against Escherichia coli IS 08040726 incubated for 16 to 18 hrs by fluorescence microplate reader analysis; format: functional; details: time 16-18 hrs
Escherichia coli [26] = assay: In vivo antibacterial activity against Escherichia coli ATCC 25922 infected in kunming mouse assessed as decrease in bacterial load in peritoneal lavage at 10 mg/kg, ip administered 4 hrs after infection and measured 18 hrs after infection; format: functional, organism-based; details: time 14.0 hrs
Candida albicans [27] = assay: Antimicrobial activity against Candida albicans IS 08030102 incubated for 16 to 18 hrs by fluorescence microplate reader analysis; format: functional; details: time 16-18 hrs
Bacillus cereus = assay: Antimicrobial activity against Bacillus cereus incubated for 16 to 18 hrs by fluorescence microplate reader analysis; format: functional; details: time 16-18 hrs
[28] = molecular target: T1, Mitogen-activated protein kinase 8/9 (Homo sapiens); assay: Inhibition of LPS-induced phosphorylation of Jnk1/2 in mouse peritoneal macrophage pretreated for 1 hr followed by LPS stimulation measured after 30 mins by Western blot analysis; format: tissue-based; details: dose 5-20 µg/ml, time 1.5 hrs
Staphylococcus aureus [29] = assay: Antimicrobial activity against methicillin sensitive Staphylococcus aureus ATCC 25923 incubated for 16 to 18 hrs by fluorescence microplate reader analysis; format: functional; details: time 16-18 hrs
[30] = Induction of neutrophil extracellular trap formation in neutrophil (unknown origin) at 20 ug/ml measured after 3 hrs by fluorescence analysis; format: functional; details: dose 20 µg/ml
Mus musculus [31] = assay: Immunomodulatory activity in Kunming mouse infected with vancomycin-resistant Staphylococcus aureus assessed as increased in IL-10 level in peritoneal lavage at 10 mg/kg, ip administered 24 hrs before infection by ELISA; format: functional, organism-based
Macrophage [32] = assay: Immunomodulatory activity in mouse peritoneal macrophage assessed as inhibition of LPS-induced TNF-alpha level measured after 24 hrs by ELISA; format: functional, tissue-based; details: dose 5-20 µg/ml

In the case of `CC[C@H](C)[C@H](NC(=O)[C@@H]1CCCN1C(=O)[C@@H](NC(=O)[C@@H](NC(=O)CNC(=O)CNC(=O)[C@@H](NC(=O)[C@H](Cc1ccccc1)NC(=O)[C@@H](NC(=O)[C@H](CCCCN)NC(=O)[C@@H](NC(=O)[C@H](CCCCN)NC(=O)[C@H](CCCCN)NC(=O)[C@H](Cc1ccccc1)NC(=O)[C@@H](NC(=O)[C@H](CCCCN)NC(=O)[C@H](CCCNC(=N)N)NC(=O)[C@H](Cc1ccccc1)NC(=O)CNC(=O)[C@H](CCCCN)NC(=O)[C@H](CCCCN)NC(=O)[C@@H](NC(=O)[C@H](CCCCN)NC(=O)[C@H](CCCNC(=N)N)NC(=O)[C@H](Cc1ccccc1)NC(=O)[C@H](Cc1ccccc1)NC(=O)[C@H](CCCCN)NC(=O)[C@H](CCCCN)NC(=O)[C@H](Cc1ccccc1)NC(=O)[C@H](CCCNC(=N)N)NC(=O)[C@@H](N)CCCCN)[C@@H](C)CC)[C@@H](C)CC)[C@@H](C)O)[C@@H](C)CC)[C@@H](C)CC)[C@@H](C)O)[C@@H](C)CC)C(=O)O` (H-KRFKKFFRKIKKGFRKIFKKTKIFIGGTIPI-OH), the Activity (LAD2) is reported as 10.97%, the Activity (Staphylococcus aureus [1]) is reported as “Dose-dependent effect” and the MIC [2] is reported as 1.17 µg/mL (≈ 0.308 µM). For the same compound, the Activity (Staphylococcus aureus [3]) was “Active”, the Activity (L02) was 4.46% and the Activity (Mus musculus [4]) was “inactive”. The Activity (Staphylococcus aureus [5]) was “Active”, the Activity (RAW264.7) was “Dose-dependent effect” and the MIC (Candida albicans [6]) was 1.17 µg/mL (≈ 0.308 µM). It also gave an MIC (Klebsiella oxytoca) of 1.17 µg/mL (≈ 0.308 µM), an Activity [7] of 15.65% and an inhibition [8] of 90%. The Activity (Mus musculus [9]) was “Active”, the hemolysis at 100 ug/ml [10] was 6.63% and the MIC (Staphylococcus aureus [11]) was 4.96 µg/mL (≈ 1.3 µM). For the same compound, the inhibition (Macrophage [12]) was “Active”, the inhibition (Macrophage [13]) was “Dose-dependent effect” and the Activity [14] was “Non-Toxic”. For the same compound, the Activity (Mus musculus [15]) was “Active”, the Activity [16] was “Non-Toxic” and the Activity (Staphylococcus aureus [17]) was “Active”. For the same compound, the inhibition (Neutrophil [18]) was “Active”, the Activity (Macrophage [19]) was “Dose-dependent effect” and the inhibition (Neutrophil [20]) was “inactive”. For the same compound, the Activity (Staphylococcus aureus [21]) was “inactive”, the Activity (Staphylococcus aureus [22]) was “Active” and the Activity (Mus musculus [23]) was “Active”. The inhibition [24] was 85%, the Activity (Nakaseomyces glabratus) was 37.47% and the MIC (Escherichia coli [25]) was 1.17 µg/mL (≈ 0.308 µM). For the same compound, the Activity (Escherichia coli [26]) was “Active”, the MIC (Candida albicans [27]) was 1.17 µg/mL (≈ 0.308 µM) and the MIC (Bacillus cereus) was 1.17 µg/mL (≈ 0.308 µM). For the same compound, the inhibition [28] was “Dose-dependent effect”, the MIC (Staphylococcus aureus [29]) was 1.17 µg/mL (≈ 0.308 µM) and the Activity [30] was 32.53%. For the same compound, the Activity (Mus musculus [31]) was “Active” and the inhibition (Macrophage [32]) was “Dose-dependent effect”.
